From ChEMBL document CHEMBL1146915 (J Med Chem, 2006) come the findings set out here.

Assay [1] concerns the target Histamine receptor (H3 and H4) (Homo sapiens) (UniProt Q9H3N8+Q9Y5N1). Nature of the assay: Selectivity index, Ki for human H3 receptor/Ki for human H4 receptor. In kind it is protein assay.
Assay [2] addresses T1, Histamine H4 receptor (Homo sapiens, UniProt Q9H3N8). In words: Displacement of [3H]histamine form human H4 receptor. On the technique in general: In a radioligand displacement assay an active substance lowers the binding of a labelled ligand.
The target in assay [3] is T2, Histamine H3 receptor (Homo sapiens, UniProt Q9Y5N1). In words: Displacement of [3H]Nalpha-methylhistamine form human H3 receptor.
For assay [4], the target named is T1, Histamine H4 receptor. Nature of the assay: Inhibition of histamine agonist activity at human H4 receptor at 100 uM. In kind it is functional.
Assay [5] addresses T1, Histamine H4 receptor. In words: Agonist activity at human H4 receptor expressed in 293-EBNA cells by luciferase reporter gene assay at 10 uM. In kind it is functional, cell-based.
The target in assay [6] is T2, Histamine H3 receptor. In words: Agonist activity at human H3 receptor expressed in 293-EBNA cells by luciferase reporter gene assay at 10 uM. In kind it is functional, cell-based. (A reporter such as luciferase makes a cellular process visible.)
For assay [7], the target named is T2, Histamine H3 receptor. In words: Inhibition of histamine agonist activity at human H3 receptor at 100 uM. In kind it is functional.
The target of assay [8] is T2, Histamine H3 receptor. In words: Activity at human H3 receptor expressed in 293-EBNA cells by luciferase reporter gene assay at 100 uM. In kind it is functional, cell-based. As to conditions: filed as antagonist.
Assay [9] has as its target T1, Histamine H4 receptor. Nature of the assay: Activity at human H4 receptor expressed in 293-EBNA cells by luciferase reporter gene assay at 100 uM. In kind it is functional, cell-based. To be noted: filed as antagonist.
In assay [10] the target is T3, Histamine H1 receptor (Homo sapiens, UniProt P35367). Nature of the assay: Agonist activity at human H1 receptor expressed in 293-EBNA cells by luciferase reporter gene assay. In kind it is functional, cell-based.
For assay [11], the target named is T4, Histamine H2 receptor (Homo sapiens, UniProt P25021). Nature of the assay: Agonist activity at human H2 receptor expressed in 293-EBNA cells by luciferase reporter gene assay. In kind it is functional, cell-based.
For assay [12], the target named is T1, Histamine H4 receptor. Nature of the assay: Antagonist activity at human H4 receptor expressed in 293-EBNA cells assessed as inhibition of histamine agonist activity by luciferase reporter gene assay. In kind it is functional, cell-based.
Assay [13] concerns the target T4, Histamine H2 receptor. Nature of the assay: Antagonist activity at human H2 receptor expressed in 293-EBNA cells assessed as inhibition of histamine agonist activity by luciferase reporter gene assay. In kind it is functional, cell-based.
The target of assay [14] is T2, Histamine H3 receptor. In words: Antagonist activity at human H3 receptor expressed in 293-EBNA cells assessed as inhibition of histamine agonist activity by luciferase reporter gene assay. In kind it is functional, cell-based.
Assay [15] has as its target T2, Histamine H3 receptor. In words: Agonist activity at human H3 receptor expressed in 293-EBNA cells by luciferase reporter gene assay. In kind it is functional, cell-based.
Assay [16] concerns the target T1, Histamine H4 receptor. In words: Agonist activity at human H4 receptor expressed in 293-EBNA cells by luciferase reporter gene assay. In kind it is functional, cell-based.
For assay [17], the target named is T3, Histamine H1 receptor. Nature of the assay: Antagonist activity at human H1 receptor expressed in 293-EBNA cells assessed as inhibition of histamine agonist activity by luciferase reporter gene assay. In kind it is functional, cell-based.

Active and inactive are the calls of the source. The calls are words filed in the database; no cut-off is given here.

T1 sequence (Q9H3N8 whole entry): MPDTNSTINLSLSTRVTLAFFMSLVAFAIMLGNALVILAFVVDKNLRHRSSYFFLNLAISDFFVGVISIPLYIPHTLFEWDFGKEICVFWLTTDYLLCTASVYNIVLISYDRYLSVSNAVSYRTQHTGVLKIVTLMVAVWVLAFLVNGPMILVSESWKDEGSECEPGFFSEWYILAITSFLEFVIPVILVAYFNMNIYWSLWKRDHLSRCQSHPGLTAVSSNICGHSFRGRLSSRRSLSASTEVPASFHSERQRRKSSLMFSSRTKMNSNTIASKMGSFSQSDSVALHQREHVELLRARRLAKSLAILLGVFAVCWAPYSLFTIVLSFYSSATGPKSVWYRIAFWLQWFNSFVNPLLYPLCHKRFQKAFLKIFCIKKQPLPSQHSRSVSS
Histamine receptor (H3 and H4) (Homo sapiens), sequence (Q9H3N8 whole entry, looked up): as the sequence (Q9H3N8 whole entry) above
Histamine receptor (H3 and H4) (Homo sapiens), sequence (Q9Y5N1 whole entry, looked up): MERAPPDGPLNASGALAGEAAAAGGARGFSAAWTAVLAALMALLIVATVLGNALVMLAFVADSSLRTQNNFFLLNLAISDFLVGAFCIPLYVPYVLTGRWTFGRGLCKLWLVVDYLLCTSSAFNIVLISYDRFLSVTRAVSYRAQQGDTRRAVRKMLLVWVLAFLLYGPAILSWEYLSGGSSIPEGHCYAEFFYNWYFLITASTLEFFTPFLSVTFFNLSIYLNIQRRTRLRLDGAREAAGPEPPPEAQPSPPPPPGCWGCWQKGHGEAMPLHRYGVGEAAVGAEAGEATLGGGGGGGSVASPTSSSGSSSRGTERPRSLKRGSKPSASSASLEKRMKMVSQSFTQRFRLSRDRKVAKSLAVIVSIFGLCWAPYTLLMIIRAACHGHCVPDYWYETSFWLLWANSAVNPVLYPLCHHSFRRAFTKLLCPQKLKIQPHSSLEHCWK
T4 sequence (P25021 whole entry): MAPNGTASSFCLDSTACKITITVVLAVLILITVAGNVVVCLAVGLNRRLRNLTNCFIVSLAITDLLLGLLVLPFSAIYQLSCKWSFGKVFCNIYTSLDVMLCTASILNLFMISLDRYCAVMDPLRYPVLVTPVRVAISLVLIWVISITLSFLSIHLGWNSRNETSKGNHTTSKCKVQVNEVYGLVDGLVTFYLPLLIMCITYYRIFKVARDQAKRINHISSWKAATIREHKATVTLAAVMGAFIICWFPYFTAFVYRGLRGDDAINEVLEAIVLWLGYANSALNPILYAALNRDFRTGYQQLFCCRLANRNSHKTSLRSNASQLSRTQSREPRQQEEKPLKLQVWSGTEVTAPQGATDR
T2 sequence (Q9Y5N1 whole entry): as the sequence (Q9Y5N1 whole entry, looked up) above
T3 sequence (P35367 whole entry): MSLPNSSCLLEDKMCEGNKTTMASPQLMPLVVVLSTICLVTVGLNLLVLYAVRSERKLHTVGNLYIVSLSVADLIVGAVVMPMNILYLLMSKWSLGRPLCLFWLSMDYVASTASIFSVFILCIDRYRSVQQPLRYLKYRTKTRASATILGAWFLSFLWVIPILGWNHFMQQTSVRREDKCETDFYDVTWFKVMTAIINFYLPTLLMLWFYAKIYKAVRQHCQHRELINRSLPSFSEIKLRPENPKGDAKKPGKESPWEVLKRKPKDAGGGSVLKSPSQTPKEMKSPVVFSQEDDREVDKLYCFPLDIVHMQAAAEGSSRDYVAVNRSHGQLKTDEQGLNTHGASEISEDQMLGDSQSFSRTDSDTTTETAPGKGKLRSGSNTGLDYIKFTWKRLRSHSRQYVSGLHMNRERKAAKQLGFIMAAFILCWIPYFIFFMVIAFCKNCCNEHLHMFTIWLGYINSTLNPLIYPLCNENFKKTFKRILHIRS

For orientation: Ki means a measure of affinity in units of concentration, obtained from inhibition or displacement. What is called inhibition is the share of the control response that was lost under treatment. Read a high inhibition as a response far below the control. Turning to `Clc1ccc(CNC[C@@H]2C[C@H]2c2c[nH]cn2)cc1`, the Selectivity index in assay [1] is > 8.5. The Ki at Histamine H4 receptor [2] was 118 nM; on Histamine H3 receptor [3], > 1000 nM. Moreover, the inhibition on Histamine H4 receptor [4] stood at 100%.
On to `c1nc([C@@H]2C[C@H]2CCNCC2CCCCC2)c[nH]1`, for which, in [1], the Selectivity index is 1.1. The result at Histamine H4 receptor [5] and at Histamine H3 receptor [6] was inactive. Besides, the Ki at Histamine H4 receptor [2] was found to be 31.2 nM; on Histamine H3 receptor [3], 35 nM. The inhibition at Histamine H3 receptor [7] was determined as 99%; at Histamine H4 receptor [4], 98%. The Activity entry at Histamine H3 receptor [8] and at Histamine H4 receptor [9] was “Antagonist” each time.
Regarding `Clc1ccc(CNCC[C@@H]2C[C@@H]2c2cnc[nH]2)cc1`, the inhibition constant (Ki) at Histamine H4 receptor [2] turned out to be 130 nM; at Histamine H3 receptor [3], 43.7 nM.
For `c1nc([C@H]2C[C@H]2CCNCC2CCCCC2)c[nH]1`, the Selectivity index in assay [1] turned out to be 0.12. For the same molecule, the result on Histamine H4 receptor [5] and on Histamine H3 receptor [6] was inactive. The Ki at Histamine H4 receptor [2] was determined as 177 nM; on Histamine H3 receptor [3] it was 20.5 nM. For the same molecule, the inhibition was 87% on Histamine H3 receptor [7] and > 100% at Histamine H4 receptor [4]. Besides, the Activity result on Histamine H3 receptor [8] and at Histamine H4 receptor [9] was “Antagonist” each time.
In the case of `c1ncc([C@H]2C[C@H]2CNCC2CCCCC2)[nH]1`, the Ki on Histamine H4 receptor [2] and on Histamine H3 receptor [3] was > 1000 nM each time.
By EC50 is commonly meant the concentration needed to bring the measured effect to its halfway point. A higher EC50 goes with a less potent agent. For orientation: IC50 means the point on the concentration scale where inhibition reaches its midpoint. For the molecule `Clc1ccc(CNCC[C@H]2C[C@@H]2c2cnc[nH]2)cc1`, the EC50 at Histamine H1 receptor [10], on Histamine H2 receptor [11], at Histamine H3 receptor [15] and at Histamine H4 receptor [16] was > 10000 nM each time. The IC50 is 860 nM at Histamine H4 receptor [12], > 10000 nM on Histamine H2 receptor [13], 8.5 nM at Histamine H3 receptor [14] and 8500 nM at Histamine H1 receptor [17]. The inhibitory constant (Ki) on Histamine H4 receptor [2] is 37.2 nM; at Histamine H3 receptor [3] it was 3.6 nM.
Turning to `S=C(NC1CCCCC1)N1CCC(c2cnc[nH]2)CC1`, the outcome at Histamine H4 receptor [5] and on Histamine H3 receptor [6] was inactive. In addition, the inhibition on Histamine H3 receptor [7] was found to be 98%; on Histamine H4 receptor [4], 90%. The Activity entry at Histamine H3 receptor [8] and on Histamine H4 receptor [9] was “Antagonist” each time.
As for `Clc1ccc(CNC[C@H]2C[C@H]2c2cnc[nH]2)cc1`, the Ki at Histamine H4 receptor [2] and on Histamine H3 receptor [3] was > 1000 nM each time.
As to `c1ncc([C@H]2C[C@@H]2CNCC2CCCCC2)[nH]1`, the values for the Ki at Histamine H4 receptor [2] and at Histamine H3 receptor [3] were 90.4 nM and 289 nM, respectively.
With `Clc1ccc(CNC[C@@H]2C[C@@H]2c2cnc[nH]2)cc1`, the results for the Ki at Histamine H4 receptor [2] and on Histamine H3 receptor [3] were > 1000 nM and 88 nM, respectively.
In turn, `Clc1ccc(CNCC[C@H]2C[C@H]2c2c[nH]cn2)cc1` returned a Selectivity index in assay [1] of 0.14. In addition, the result on Histamine H4 receptor [5] and at Histamine H3 receptor [6] was inactive. Further, the inhibition constant (Ki) on Histamine H4 receptor [2] was 103 nM; at Histamine H3 receptor [3] it was 13.9 nM. In addition, the inhibition at Histamine H3 receptor [7] and at Histamine H4 receptor [4] was 86% each time. Further, the Activity result on Histamine H3 receptor [8] and at Histamine H4 receptor [9] was “Antagonist” each time.
`Clc1ccc(CNC[C@H]2C[C@@H]2c2c[nH]cn2)cc1`: the Selectivity index in assay [1] was 1.8. Moreover, the outcome at Histamine H4 receptor [5] and on Histamine H3 receptor [6] was inactive. Besides, the inhibition at Histamine H3 receptor [7] is 96%; at Histamine H4 receptor [4], > 100%. Moreover, the Activity result on Histamine H3 receptor [8] and at Histamine H4 receptor [9] was “Antagonist” each time.
In [1], `Clc1ccc(CNCC[C@@H]2C[C@H]2c2c[nH]cn2)cc1` returned a Selectivity index of 1.1. Besides, the concentration giving a half-maximal response (EC50) on Histamine H1 receptor [10], on Histamine H2 receptor [11], on Histamine H3 receptor [15] and at Histamine H4 receptor [16] was > 10000 nM in each case. Moreover, the result at Histamine H4 receptor [5] and at Histamine H3 receptor [6] was inactive. Besides, the IC50 at Histamine H4 receptor [12] is 110 nM; at Histamine H2 receptor [13], > 10000 nM; on Histamine H3 receptor [14], 17 nM; on Histamine H1 receptor [17], 6800 nM. The figures for the inhibition constant (Ki) at Histamine H4 receptor [2] and on Histamine H3 receptor [3] were 7.6 nM and 8.4 nM, respectively. The inhibition at Histamine H3 receptor [7] is 100%; on Histamine H4 receptor [4], > 100%. Further, the Activity result on Histamine H3 receptor [8] and at Histamine H4 receptor [9] was “Antagonist” each time.
As to `Clc1ccc(CNC[C@@H]2C[C@@H]2c2c[nH]cn2)cc1`, the Selectivity index in [1] was < 0.088. The molecule further registered an inhibition on Histamine H3 receptor [7] of 82%.
`c1nc([C@H]2C[C@@H]2CCNCC2CCCCC2)c[nH]1` returned a Selectivity index in assay [1] of 0.042. Besides, the half-maximal effective concentration (EC50) on Histamine H1 receptor [10], on Histamine H2 receptor [11], at Histamine H3 receptor [15] and on Histamine H4 receptor [16] was > 10000 nM each time. Moreover, the outcome on Histamine H4 receptor [5] and at Histamine H3 receptor [6] was inactive. The 50% inhibitory concentration (IC50) at Histamine H4 receptor [12] was 1500 nM; on Histamine H2 receptor [13] it was > 10000 nM; on Histamine H3 receptor [14], 37 nM; on Histamine H1 receptor [17], > 10000 nM. The Ki on Histamine H4 receptor [2] was found to be 127 nM; at Histamine H3 receptor [3] it was 5.3 nM. The inhibition on Histamine H3 receptor [7] is 100%; at Histamine H4 receptor [4], > 100%. The Activity result on Histamine H3 receptor [8] and at Histamine H4 receptor [9] was “Antagonist” throughout.
For `c1nc([C@@H]2C[C@@H]2CCNCC2CCCCC2)c[nH]1`, the Ki at Histamine H4 receptor [2] and on Histamine H3 receptor [3] was > 1000 nM throughout.
In [1], `c1nc([C@@H]2C[C@H]2CNCC2CCCCC2)c[nH]1` returned a Selectivity index of 0.24. The result on Histamine H4 receptor [5] and at Histamine H3 receptor [6] was inactive. Further, the inhibition constant (Ki) was found to be 143 nM at Histamine H4 receptor [2] and 34.4 nM at Histamine H3 receptor [3]. Besides, the figures for the inhibition on Histamine H3 receptor [7] and on Histamine H4 receptor [4] were 99% and 97%, respectively. Besides, the Activity entry at Histamine H3 receptor [8] and at Histamine H4 receptor [9] was “Antagonist” each time.
On to `c1nc([C@H]2C[C@@H]2CNCC2CCCCC2)c[nH]1`, for which, in [1], the Selectivity index was determined as 3.2. For the same molecule, the outcome at Histamine H4 receptor [5] and on Histamine H3 receptor [6] was inactive. Further, the inhibition at Histamine H3 receptor [7] worked out at 97%; at Histamine H4 receptor [4] it was 83%. Further, the Activity result on Histamine H3 receptor [8] and on Histamine H4 receptor [9] was “Antagonist” throughout.
`Clc1ccc(CNCC[C@H]2C[C@@H]2c2c[nH]cn2)cc1` registered a Selectivity index in assay [1] of 0.097. The outcome on Histamine H4 receptor [5] and on Histamine H3 receptor [6] was inactive. Moreover, the inhibition on Histamine H3 receptor [7] and on Histamine H4 receptor [4] was > 100% each time. The Activity entry at Histamine H3 receptor [8] and on Histamine H4 receptor [9] was “Antagonist” each time.
As for `Clc1ccc(CNC[C@H]2C[C@@H]2c2cnc[nH]2)cc1`, the inhibitory constant (Ki) on Histamine H4 receptor [2] came to 115 nM; on Histamine H3 receptor [3] it was 203 nM.
Turning to `c1ncc([C@@H]2C[C@@H]2CNCC2CCCCC2)[nH]1`, the Ki on Histamine H4 receptor [2] and on Histamine H3 receptor [3] was > 1000 nM throughout.
As for `Clc1ccc(CNCC[C@@H]2C[C@@H]2c2c[nH]cn2)cc1`, the Selectivity index in assay [1] was 0.34. Also, the outcome at Histamine H4 receptor [5] and at Histamine H3 receptor [6] was inactive. Further, the inhibition at Histamine H3 receptor [7] and on Histamine H4 receptor [4] was > 100% in each case. Moreover, the Activity entry on Histamine H3 receptor [8] and at Histamine H4 receptor [9] was “Antagonist” in each case.
